Legend:
rat duodenum = assay: in vitro sac permeation study, rat duodenum; details: for Papp Ratio (SNP/CTRL): SNP 3 mM pretreatment
Description: (§1) Animal experimental protocols (approval codes: P18-30, P19-09, and P20-14) were carried out in accordance with the Ethical Committee of Tokyo University of Pharmacy and Life Sciences. Male Wistar rats (8 weeks old) were obtained from Tokyo Laboratory Animals Science Co., Ltd. (Tokyo, Japan). Permeation studies of lipophilic drugs were carried out using the in vitro sac method, as previously described.
(§2) Based on these concentrations, the apparent permeability coefficients (Papp) of each test compound were calculated according to the following Equation (1):(1) Pappcm/s=dQ/dt×1/C0S where: • dQ/dt—the flux of the test compound in the serosal side, • C0—the initial concentration in the mucosal side, • S—the surface area of the intestinal lumen.

[1] = in vitro sac permeation study, rat jejunum; details: male, Wistar, rat, 200 μM test compound
Description: (§3) Animal experimental protocols (approval codes: P18-30, P19-09, and P20-14) were carried out in accordance with the Ethical Committee of Tokyo University of Pharmacy and Life Sciences. Male Wistar rats (8 weeks old) were obtained from Tokyo Laboratory Animals Science Co., Ltd. (Tokyo, Japan). Permeation studies of lipophilic drugs were carried out using the in vitro sac method, as previously described. […] The serosal samples were collected at 0, 10, 20, 30, 40, 60, 90, and 120 min after administration, and analyzed using a reversed-phase HPLC system (LC-2000Plus; JASCO Co., Tokyo, Japan) or fluorescence microplate reader to determine the concentration of each test compound [15].
as §2

rat jejunum = assay: in vitro sac permeation study, rat jejunum; details: SNP 3 mM pretreatment
Description: as §3, §2

[2] = in vitro sac permeation study, rat duodenum; details: male, Wistar, rat, 200 μM test compound
Description: as §1, §2

rat ileum = assay: in vitro sac permeation study, rat ileum; details: SNP 3 mM pretreatment
Description: as §3, §2

[3] = in vitro sac permeation study, rat ileum; details: male, Wistar, rat, 200 μM test compound
Description: as §3, §2

[4] = in vitro sac permeation study, rat colon; details: male, Wistar, rat, 200 μM test compound
Description: as §3, §2

rat colon = assay: in vitro sac permeation study, rat colon; details: SNP 3 mM pretreatment
Description: as §3, §2

[5] = Papp SNP, pretreated with SNP 3 mM for 60 min

Compound | effect on the SNP enhancement of griseofulvin permeability (rat duodenum; DTT 10 mM for 10 min before SNP 3 mM) | effect of pretreatment on flurbiprofen permeation (rat duodenum; SNP 3 mM 60 min, DTT 10 mM 10 min) | effect of pretreatment on griseofulvin permeation (rat duodenum; SNP or SFC 3 mM 60 min, DTT 10 mM 10 min) | Papp at 120 min, 200 μM ([1]; Papp CTRL, SNP-untreated) [×10⁻⁶ cm/s] | Papp at 120 min, 200 μM [1, 5] [×10⁻⁶ cm/s] | Papp Ratio (SNP/CTRL) (rat jejunum) | Papp at 120 min, 200 μM ([2]; Papp CTRL, SNP-untreated) [×10⁻⁶ cm/s] | Papp at 120 min, 200 μM [2, 5] [×10⁻⁶ cm/s] | Papp Ratio (SNP/CTRL) (rat duodenum) | Papp Ratio (SNP/CTRL) (rat ileum) | Papp at 120 min, 200 μM ([3]; Papp CTRL, SNP-untreated) [×10⁻⁶ cm/s] | Papp at 120 min, 200 μM [3, 5] [×10⁻⁶ cm/s] | Papp at 120 min, 200 μM ([4]; Papp CTRL, SNP-untreated) [×10⁻⁶ cm/s] | Papp at 120 min, 200 μM [4, 5] [×10⁻⁶ cm/s] | Papp Ratio (SNP/CTRL) (rat colon) | effect on the SNP enhancement of griseofulvin permeability (rat duodenum; c-PTIO 1 mM co-pre-treated with SNP 3 mM) | effect on the SNP-increased FD-4 permeation (rat duodenum; c-PTIO 1 mM with SNP 3 mM)
O[C@@H](CS)[C@@H](O)CS (racemic) [DTT, dithiothreitol] | visibly disappeared | increased | increased | – | – | – | – | – | – | – | – | – | – | – | – | – | –
COC1=CC(=O)C[C@@H](C)[C@]12Oc1c(Cl)c(OC)cc(OC)c1C2=O [Griseofulvin] | – | – | – | 42.2 ± 20 | 70.3 ± 19.2 | 1.67 | 8 ± 4.2 | 19.6 ± 4.1 | 2.45 | 0.76 | 24.3 ± 6 | 18.4 ± 4.4 | 39.6 ± 21.4 | 31.7 ± 11.1 | 0.80 | – | –
CC(C)NCC(O)COc1cccc2ccccc12 (centres unmarked) [Propranolol] | – | – | – | 4.7 ± 1 | 4.3 ± 1.8 | 0.91 | 1.1 ± 0.6 | 1.3 ± 0.7 | 1.18 | 1.05 | 3.7 ± 1 | 3.9 ± 1 | 2.1 ± 1.1 | 3.5 ± 1.6 | 1.67 | – | –
CC(C(=O)O)c1ccc(-c2ccccc2)c(F)c1 (centres unmarked) [Flurbiprofen] | – | – | – | 26 ± 11.9 | 32.7 ± 12.9 | 1.26 | 5.8 ± 1.7 | 13 ± 2.7 | 2.24 | 1.17 | 33.9 ± 11.3 | 39.8 ± 17.7 | 28.3 ± 2.5 | 19.4 ± 3.7 | 0.69 | – | –
CC1(C)N([O])C(c2ccc(C(=O)O)cc2)=[N+]([O-])C1(C)C [c-PTIO, Carboxy-PTIO] | – | – | – | – | – | – | – | – | – | – | – | – | – | – | – | inhibited | disappeared

— PMC8587071, “Utilization of Sodium Nitroprusside as an Intestinal Permeation Enhancer for Lipophilic Drug Absorption Improvement in the Rat Proximal Intestine” (Molecules, 2021)
